This note sets out measurements from ChEMBL document CHEMBL4043168, “The design and SAR of a novel series of 2-aminopyridine based LRRK2 inhibitors” (Bioorg Med Chem Lett, 2017).

SMILES strings stand for the structures.

Assay [1] deals with Ribosomal protein S6 kinase alpha-3 (Homo sapiens) (UniProt P51812). The experiment in a line: Inhibition of RSK2 domain1 ATP binding site (VLGQGSFGKVFLVK) in human PBMC at 0.1 uM.
For assay [2], the target named is Mitogen-activated protein kinase kinase kinase 2 (Homo sapiens) (UniProt Q9Y2U5). Put plainly: Inhibition of MAP3K2 conserved Lys2 (DIKGANILR) in human PBMC at 0.1 uM.
Sequence of Mitogen-activated protein kinase kinase kinase 2 (Homo sapiens) (Q9Y2U5 whole entry): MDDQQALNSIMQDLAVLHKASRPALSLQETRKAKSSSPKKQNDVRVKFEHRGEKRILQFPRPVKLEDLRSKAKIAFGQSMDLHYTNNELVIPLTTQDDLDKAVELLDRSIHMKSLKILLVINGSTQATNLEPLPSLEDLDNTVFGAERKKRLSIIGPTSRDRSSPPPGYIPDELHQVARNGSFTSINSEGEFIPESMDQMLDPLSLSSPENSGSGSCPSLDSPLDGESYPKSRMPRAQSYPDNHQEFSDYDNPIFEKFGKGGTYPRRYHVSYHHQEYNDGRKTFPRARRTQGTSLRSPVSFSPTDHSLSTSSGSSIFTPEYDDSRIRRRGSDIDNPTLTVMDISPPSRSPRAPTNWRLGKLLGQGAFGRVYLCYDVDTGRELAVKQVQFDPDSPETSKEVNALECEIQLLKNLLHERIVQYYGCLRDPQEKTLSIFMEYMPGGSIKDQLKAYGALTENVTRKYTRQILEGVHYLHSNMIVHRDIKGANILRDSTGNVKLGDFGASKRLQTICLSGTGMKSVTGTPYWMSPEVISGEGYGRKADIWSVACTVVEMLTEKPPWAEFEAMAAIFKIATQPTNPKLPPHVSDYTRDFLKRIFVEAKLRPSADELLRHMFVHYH
Assay [3] concerns the target Diacylglycerol kinase alpha (Homo sapiens) (UniProt P23743). Put plainly: Inhibition of DGKA labeling at activation Loop (IDPVPNTHPLLVFVNPKSGGK) in human PBMC at 1 uM.
Assay [4] deals with Activated CDC42 kinase 1 (Homo sapiens) (UniProt Q07912). Put plainly: Inhibition of ACK labeling at ATP binding site (TVSVAVKCLKPDVLSQPEAMDDFIR) in human PBMC at 1 uM.
The target in assay [5] is Mitogen-activated protein kinase 10 (Homo sapiens) (UniProt P53779). The experiment in a line: Inhibition of JNK3 conserved Lys2 (DLKPSNIVVK) in human PBMC at 0.1 uM.
Sequence of Mitogen-activated protein kinase 10 (Homo sapiens) (P53779 whole entry): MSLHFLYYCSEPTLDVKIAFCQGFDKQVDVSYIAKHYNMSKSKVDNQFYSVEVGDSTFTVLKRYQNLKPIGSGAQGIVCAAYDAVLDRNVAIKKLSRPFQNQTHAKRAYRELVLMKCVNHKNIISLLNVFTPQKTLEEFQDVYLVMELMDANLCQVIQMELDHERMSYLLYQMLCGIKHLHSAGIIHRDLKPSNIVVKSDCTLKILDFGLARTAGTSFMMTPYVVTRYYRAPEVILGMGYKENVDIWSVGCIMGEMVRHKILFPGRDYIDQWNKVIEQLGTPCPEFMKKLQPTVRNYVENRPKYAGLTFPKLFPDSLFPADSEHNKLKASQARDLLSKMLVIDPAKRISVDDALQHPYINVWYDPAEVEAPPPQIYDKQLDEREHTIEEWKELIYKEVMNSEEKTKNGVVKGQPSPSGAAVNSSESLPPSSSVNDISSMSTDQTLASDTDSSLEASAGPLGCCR
In assay [6] the target is Mitogen-activated protein kinase 9 (Homo sapiens) (UniProt P45984). The experiment in a line: Inhibition of JNK2 conserved Lys2 (DLKPSNIVVK) in human PBMC at 0.1 uM.
Sequence of Mitogen-activated protein kinase 9 (Homo sapiens) (P45984 whole entry, looked up): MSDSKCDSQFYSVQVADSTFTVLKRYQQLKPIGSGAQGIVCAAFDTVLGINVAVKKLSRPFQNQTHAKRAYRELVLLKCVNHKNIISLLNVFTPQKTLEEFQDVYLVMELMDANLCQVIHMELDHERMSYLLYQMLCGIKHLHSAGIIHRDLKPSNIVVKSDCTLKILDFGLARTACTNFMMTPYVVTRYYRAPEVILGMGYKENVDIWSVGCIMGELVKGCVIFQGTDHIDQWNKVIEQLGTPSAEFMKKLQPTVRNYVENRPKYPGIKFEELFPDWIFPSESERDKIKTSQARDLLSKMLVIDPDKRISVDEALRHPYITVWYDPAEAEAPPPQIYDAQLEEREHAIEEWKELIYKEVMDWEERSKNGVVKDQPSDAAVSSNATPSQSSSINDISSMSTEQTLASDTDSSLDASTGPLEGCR
Assay [7] addresses Calcium/calmodulin-dependent protein kinase type II subunit delta (Homo sapiens) (UniProt Q13557). The experiment in a line: Inhibition of CaMK2d labeling at conserved Lys2 (DLKPENLLLASK) in human PBMC at 0.1 uM.
A short description of assay [8]: Inhibition of GCK conserved Lys2 (DIKGANLLLTLQGDVK) in human PBMC at 1 uM.
For assay [9], the target named is Mitogen-activated protein kinase kinase kinase kinase 5 (Homo sapiens) (UniProt Q9Y4K4). Put plainly: Inhibition of KHS1 conserved Lys1 (NVHTGELAAVKIIK) in human PBMC at 1 uM.
Sequence of Mitogen-activated protein kinase kinase kinase kinase 5 (Homo sapiens) (Q9Y4K4 whole entry, looked up): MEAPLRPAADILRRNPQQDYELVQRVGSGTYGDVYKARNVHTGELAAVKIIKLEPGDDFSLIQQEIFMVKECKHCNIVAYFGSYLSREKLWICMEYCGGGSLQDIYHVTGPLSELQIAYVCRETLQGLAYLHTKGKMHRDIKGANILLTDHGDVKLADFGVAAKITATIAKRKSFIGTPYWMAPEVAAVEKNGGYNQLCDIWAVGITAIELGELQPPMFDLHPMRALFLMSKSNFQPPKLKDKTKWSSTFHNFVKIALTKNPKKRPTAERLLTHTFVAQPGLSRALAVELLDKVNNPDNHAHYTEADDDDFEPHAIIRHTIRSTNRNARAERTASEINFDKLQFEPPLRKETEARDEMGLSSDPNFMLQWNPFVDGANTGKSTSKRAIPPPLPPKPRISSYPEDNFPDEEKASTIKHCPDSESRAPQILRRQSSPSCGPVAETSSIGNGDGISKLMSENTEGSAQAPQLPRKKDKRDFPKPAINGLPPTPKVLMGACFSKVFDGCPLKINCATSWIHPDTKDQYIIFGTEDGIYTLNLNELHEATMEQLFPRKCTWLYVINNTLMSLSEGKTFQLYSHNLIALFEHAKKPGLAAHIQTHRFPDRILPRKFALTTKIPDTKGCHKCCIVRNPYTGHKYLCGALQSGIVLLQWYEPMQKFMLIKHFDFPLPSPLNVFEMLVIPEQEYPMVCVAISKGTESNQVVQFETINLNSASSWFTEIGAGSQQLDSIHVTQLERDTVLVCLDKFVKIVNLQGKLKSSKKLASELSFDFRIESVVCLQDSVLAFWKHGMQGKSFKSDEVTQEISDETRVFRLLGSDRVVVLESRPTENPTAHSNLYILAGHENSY
The target in assay [10] is Serine/threonine-protein kinase LATS2 (Homo sapiens) (UniProt Q9NRM7). The experiment in a line: Inhibition of LATS2 conserved Lys2 (DIKPDNILIDLDGHIK) in human PBMC at 0.1 uM.
In assay [11] the target is Tyrosine-protein kinase Fgr (Homo sapiens) (UniProt P09769). The experiment in a line: Inhibition of FGR conserved Lys1 (LIKDDEYNPCQGSKFPIK) in human PBMC at 0.1 uM.
Sequence of Tyrosine-protein kinase Fgr (Homo sapiens) (P09769 2-529 limits assumed): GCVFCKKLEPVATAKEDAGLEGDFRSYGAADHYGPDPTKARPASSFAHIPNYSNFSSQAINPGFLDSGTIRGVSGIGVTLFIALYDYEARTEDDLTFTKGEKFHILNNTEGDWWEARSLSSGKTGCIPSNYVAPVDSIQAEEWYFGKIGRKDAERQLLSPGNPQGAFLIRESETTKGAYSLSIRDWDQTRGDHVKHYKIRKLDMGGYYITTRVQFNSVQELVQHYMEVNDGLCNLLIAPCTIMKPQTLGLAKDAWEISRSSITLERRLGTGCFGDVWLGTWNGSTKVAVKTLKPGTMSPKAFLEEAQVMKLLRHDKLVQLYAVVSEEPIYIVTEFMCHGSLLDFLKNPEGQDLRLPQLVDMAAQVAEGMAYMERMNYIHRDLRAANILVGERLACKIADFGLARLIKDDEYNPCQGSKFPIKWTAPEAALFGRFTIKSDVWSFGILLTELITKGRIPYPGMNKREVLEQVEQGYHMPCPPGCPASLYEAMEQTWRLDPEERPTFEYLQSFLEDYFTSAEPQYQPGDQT
Assay [12] concerns the target MAP/microtubule affinity-regulating kinase 3 (Homo sapiens) (UniProt P27448). Put plainly: Inhibition of MARK3 conserved Lys2 (DLKAENLLLDADMNIK) in human PBMC at 1 uM.
The target of assay [13] is T1, STE20-related kinase adapter protein alpha (Homo sapiens) (UniProt Q7RTN6).
T1 sequence (whole entry): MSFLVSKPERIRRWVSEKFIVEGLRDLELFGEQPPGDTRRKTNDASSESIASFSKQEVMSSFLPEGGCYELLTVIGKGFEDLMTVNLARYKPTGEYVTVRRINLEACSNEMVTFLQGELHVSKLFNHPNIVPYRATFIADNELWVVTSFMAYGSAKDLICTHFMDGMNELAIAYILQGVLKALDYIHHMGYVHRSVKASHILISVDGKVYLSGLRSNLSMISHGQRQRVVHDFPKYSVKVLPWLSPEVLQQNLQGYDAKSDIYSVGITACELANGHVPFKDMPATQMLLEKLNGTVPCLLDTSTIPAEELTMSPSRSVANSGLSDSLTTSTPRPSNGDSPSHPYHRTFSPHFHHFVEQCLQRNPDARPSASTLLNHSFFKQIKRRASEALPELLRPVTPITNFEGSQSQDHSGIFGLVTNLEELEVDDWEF
The experiment in a line: Inhibition of STLK5 conserved Lys2 (SVKASHILISVDGK) in human PBMC at 1 uM.

In assay [14] the target is T1, STE20-related kinase adapter protein alpha (Homo sapiens). Put plainly: Inhibition of STLK5 conserved Lys2 (SVKASHILISVDGK) in human PBMC at 0.1 uM.
The target of assay [15] is T2, Mitogen-activated protein kinase kinase kinase 6 (Homo sapiens) (UniProt O95382).
T2 sequence (whole entry): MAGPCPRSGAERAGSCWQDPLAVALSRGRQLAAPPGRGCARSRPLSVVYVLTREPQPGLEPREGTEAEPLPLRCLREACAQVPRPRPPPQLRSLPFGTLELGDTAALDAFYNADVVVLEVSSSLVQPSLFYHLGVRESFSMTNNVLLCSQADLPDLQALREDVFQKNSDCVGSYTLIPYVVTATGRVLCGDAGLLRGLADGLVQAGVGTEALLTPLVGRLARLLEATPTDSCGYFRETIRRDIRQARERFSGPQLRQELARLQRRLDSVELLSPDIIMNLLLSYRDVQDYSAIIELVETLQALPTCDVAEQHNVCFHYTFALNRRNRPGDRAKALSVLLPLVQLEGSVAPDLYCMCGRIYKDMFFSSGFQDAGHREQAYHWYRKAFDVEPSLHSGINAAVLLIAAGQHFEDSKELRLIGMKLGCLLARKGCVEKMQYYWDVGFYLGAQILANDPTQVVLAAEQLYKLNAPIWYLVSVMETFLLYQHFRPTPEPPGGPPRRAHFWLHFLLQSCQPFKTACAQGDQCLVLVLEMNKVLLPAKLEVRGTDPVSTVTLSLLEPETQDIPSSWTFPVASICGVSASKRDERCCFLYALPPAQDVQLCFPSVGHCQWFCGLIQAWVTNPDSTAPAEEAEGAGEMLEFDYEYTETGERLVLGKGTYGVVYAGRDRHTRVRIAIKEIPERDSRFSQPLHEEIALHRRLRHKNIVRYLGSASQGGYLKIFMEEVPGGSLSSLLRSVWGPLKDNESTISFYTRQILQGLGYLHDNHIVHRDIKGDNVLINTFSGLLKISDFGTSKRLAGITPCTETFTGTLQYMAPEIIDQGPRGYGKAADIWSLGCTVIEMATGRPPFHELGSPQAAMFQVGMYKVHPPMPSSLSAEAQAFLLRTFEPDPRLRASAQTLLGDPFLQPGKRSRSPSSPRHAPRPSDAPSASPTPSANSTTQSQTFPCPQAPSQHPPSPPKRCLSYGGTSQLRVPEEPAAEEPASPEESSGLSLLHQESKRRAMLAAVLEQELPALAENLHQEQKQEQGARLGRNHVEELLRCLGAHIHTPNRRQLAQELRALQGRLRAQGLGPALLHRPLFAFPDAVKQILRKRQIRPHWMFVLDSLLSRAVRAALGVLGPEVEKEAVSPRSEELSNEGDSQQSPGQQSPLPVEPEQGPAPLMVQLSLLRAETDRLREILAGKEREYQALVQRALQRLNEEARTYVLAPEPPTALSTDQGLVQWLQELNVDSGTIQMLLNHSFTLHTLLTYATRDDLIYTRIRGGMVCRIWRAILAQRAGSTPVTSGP
The experiment in a line: Inhibition of MAP3K6 conserved Lys1 (IAIKEIPER) in human PBMC at 1 uM.

Sequence of MAP/microtubule affinity-regulating kinase 3 (Homo sapiens) (P27448 whole entry, looked up): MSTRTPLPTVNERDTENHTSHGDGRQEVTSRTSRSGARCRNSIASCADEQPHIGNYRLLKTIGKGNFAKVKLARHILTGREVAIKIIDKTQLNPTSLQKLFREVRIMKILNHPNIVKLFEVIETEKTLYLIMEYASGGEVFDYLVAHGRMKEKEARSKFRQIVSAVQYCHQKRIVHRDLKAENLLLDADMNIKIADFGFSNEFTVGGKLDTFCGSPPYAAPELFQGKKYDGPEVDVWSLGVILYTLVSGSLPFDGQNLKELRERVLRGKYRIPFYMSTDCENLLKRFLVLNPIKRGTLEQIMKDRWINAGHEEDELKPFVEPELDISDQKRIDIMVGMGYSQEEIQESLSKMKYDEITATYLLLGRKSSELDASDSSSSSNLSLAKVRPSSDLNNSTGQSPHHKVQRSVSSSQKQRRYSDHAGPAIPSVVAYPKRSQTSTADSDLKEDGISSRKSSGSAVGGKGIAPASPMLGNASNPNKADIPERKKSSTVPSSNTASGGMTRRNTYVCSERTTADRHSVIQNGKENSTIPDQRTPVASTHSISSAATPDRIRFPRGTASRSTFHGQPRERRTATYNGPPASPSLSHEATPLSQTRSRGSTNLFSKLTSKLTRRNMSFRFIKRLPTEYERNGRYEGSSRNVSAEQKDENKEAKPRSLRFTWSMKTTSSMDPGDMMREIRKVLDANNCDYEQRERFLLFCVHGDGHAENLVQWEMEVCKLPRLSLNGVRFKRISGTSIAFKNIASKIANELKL
Sequence of Calcium/calmodulin-dependent protein kinase type II subunit delta (Homo sapiens) (Q13557 whole entry): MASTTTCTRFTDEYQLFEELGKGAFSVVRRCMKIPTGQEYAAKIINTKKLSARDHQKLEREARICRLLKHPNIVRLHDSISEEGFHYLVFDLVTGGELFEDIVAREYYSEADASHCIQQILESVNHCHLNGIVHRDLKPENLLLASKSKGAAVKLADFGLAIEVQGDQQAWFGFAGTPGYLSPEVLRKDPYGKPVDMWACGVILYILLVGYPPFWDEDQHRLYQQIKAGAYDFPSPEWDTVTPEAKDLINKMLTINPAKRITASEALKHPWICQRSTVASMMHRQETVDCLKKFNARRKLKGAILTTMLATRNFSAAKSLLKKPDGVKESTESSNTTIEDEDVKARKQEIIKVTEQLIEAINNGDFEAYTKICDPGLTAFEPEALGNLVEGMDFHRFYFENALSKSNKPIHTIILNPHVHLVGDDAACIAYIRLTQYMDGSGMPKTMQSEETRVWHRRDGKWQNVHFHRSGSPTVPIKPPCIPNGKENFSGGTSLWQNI
Sequence of Diacylglycerol kinase alpha (Homo sapiens) (P23743 whole entry): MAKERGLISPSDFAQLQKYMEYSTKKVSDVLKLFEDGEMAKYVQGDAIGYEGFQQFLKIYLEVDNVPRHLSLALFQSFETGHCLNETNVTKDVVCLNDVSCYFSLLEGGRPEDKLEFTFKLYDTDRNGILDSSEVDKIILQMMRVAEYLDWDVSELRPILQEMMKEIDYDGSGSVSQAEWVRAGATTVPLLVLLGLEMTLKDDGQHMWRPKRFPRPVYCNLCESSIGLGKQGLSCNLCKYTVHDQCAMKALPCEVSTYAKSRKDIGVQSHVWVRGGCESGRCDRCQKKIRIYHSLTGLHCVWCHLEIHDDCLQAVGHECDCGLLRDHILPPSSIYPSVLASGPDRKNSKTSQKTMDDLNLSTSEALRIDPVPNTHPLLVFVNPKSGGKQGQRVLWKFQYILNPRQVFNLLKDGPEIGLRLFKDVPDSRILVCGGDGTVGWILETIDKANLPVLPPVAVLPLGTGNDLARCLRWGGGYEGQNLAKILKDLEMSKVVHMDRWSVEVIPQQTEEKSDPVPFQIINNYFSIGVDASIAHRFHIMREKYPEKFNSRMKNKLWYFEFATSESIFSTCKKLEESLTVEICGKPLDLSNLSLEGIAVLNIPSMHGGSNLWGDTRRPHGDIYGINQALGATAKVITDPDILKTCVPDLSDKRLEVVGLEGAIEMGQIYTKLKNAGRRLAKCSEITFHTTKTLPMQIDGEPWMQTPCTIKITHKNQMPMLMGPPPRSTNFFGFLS

The inhibition is the relative decrease from the control value, in per cent. Turning to `CC(C)n1cc(-c2cc(-c3ccc(CN4CCOCC4)cc3)cnc2N)nn1`, the inhibition in assay [1] is 3.1%; in [2], 23.2%; in assay [3], -9.6%; in assay [4] it was -5.7%; in [5], 25.1%; in [6], 25.1%. For the same compound, the inhibition is -7.5% in [7]; 26.2% in assay [8]; 3.8% in [9]; 3% in assay [10]; 9.6% in assay [11]; 28.8% in [12]. The inhibition in [13] is 8.7%; in assay [14], 26.2%; in assay [15], -3.3%.
